Data on 2 substances can be found in patent US9221900B2, “Methods for identifying safe and functional humanized antibodies” (AC IMMUNE S.A., priority 2010, dated 2015).

In one experiment the target is T1, FcγRIIIa-V158 (Homo sapiens, UniProt P08637, F176V).
T1 construct: fusion proteins containing the extracellular domain of the receptor γ-chain
Nature of the experiment: FcγR binding ELISA, FcγRIIIa-V158. The note with it: cross-linked IgG mAb. The procedure: The ability of these different monoclonal antibody backbones to internalize Aβ1-42 oligomers into microglia was then compared using confocal imaging on Aβ1-42 oligomer treated primary cortical microglia. […] To verify that microglia are indeed the cells taking up Aβ1-42 complexed to monoclonal antibodies, the study was repeated using HiLyte Fluor-488 tagged Aβ1-42 and co-stained for the microglial marker Iba1.
The binding of test antibodies to a panel of human Fcγ receptors (FcγRs) was measured using enzyme-linked immunosorbent assay (ELISA). Human FcγRs (Genentech, Inc., CA) are fusion proteins containing the extracellular domain of the receptor γ-chain with a Gly/6xHis/glutathione S transferase (GST) polypeptide tag at the C terminus. A monoclonal antibody with human IgG1 framework was used as the positive control (IgG1 control) in this experiment. Plates were coated with a mouse monoclonal anti GST antibody (Genentech, Inc.) in a 0.05 M sodium carbonate buffer (pH 9.6) overnight at 4° C. After blocking with an assay buffer containing phosphate buffered saline (PBS), 0.5% BSA, and 0.05% Tween-20, the plates were incubated with FcγRs at room temperature for 1 h. Human FcγRs were immobilized to the plate via interaction with the anti-GST coating. […] Diluted samples were applied as monomeric forms for the high affinity receptor (FcγRIa), or multimeric forms for the low affinity receptors (FcγRIIa, FcγRIIb, and FcγRIIIa). […] The antibodies bound to the FcγRs were detected with horseradish peroxidase (HRP)-conjugated F(ab′)2 fragment of goat anti human F(ab′)2 (Jackson ImmunoResearch Laboratories; West Grove, Pa.). […] The reaction was terminated with 1 M H3PO4, and absorbance at 450 nm with reference at 650 nm was measured on a plate reader (Molecular Devices, Sunnyvale, Calif.). Binding curves were generated by plotting the mean absorbance values from duplicates of sample dilutions against the respective sample absorbance.
(In general: In an ELISA, binding on a coated surface is turned into a signal by an enzyme label.)

A further experiment deals with p38MAPK. Nature of the experiment: Phospho-p38MAPK ELISA. It is filed as cell-based, rat. The note with it: 10 μM Aβ1-42 oligomers for 30 min, 100 μg/mL antibody. How it is done:
FIG. 5 provides graphs and immunocytochemical images corresponding to the experiments described in Example 6.6. […] An IgG1 monoclonal antibody not binding to Aβ was used as control. The activity of p38MAP K was measured by a phospho-specific ELISA as described in Methods (A). The mean (±SEM) of 4 independent experiments is shown. Statistical analysis was done using one-way ANOVA followed by Tukey post-hoc multiple comparison. Activation of p38MAPK with Aβ1-42 oligomers complexed with monoclonal antibody was specific to microglia (B). Cells were treated as described above and then stained for phospho-p38MAP K (green), with Iba1 (red), and with DAPI (blue). […] Pure microglia from CX3CR1-GFP mice were used to verify microglia-specific p38 activity (C). […] A cytotoxicity assay using the MTT readout was performed after 24 h. The mean (±SEM) of 4 experiments is shown. […]
Rat cortical cultures were seeded onto poly-L-lysine coated 6-well cell-culture plates (Costar, Cambridge, Mass., USA) and used at DIV 5. […] Protein concentration was determined by the BCA assay (Pierce, Rockford, Ill., USA). For semi-quantitative measure of p38MAPK activation, a rat phospho-p38MAPK colorimetric ELISA kit was used (Cell Signaling Technology, Beverly, Mass., USA), following the manufacturer's instructions. Plates were read on a spectrophotometric microplate reader (Tecan) at a […]. […]

The subject of the next experiment is microglia. Description: Confocal imaging of microglial uptake of Aβ1-42 oligomers. The format is cell-based, rat. As to conditions: for Aβ1-42 oligomer internalization into microglia, rank order: primary cortical microglia.

T1 sequence (P08637 17-208 F176V): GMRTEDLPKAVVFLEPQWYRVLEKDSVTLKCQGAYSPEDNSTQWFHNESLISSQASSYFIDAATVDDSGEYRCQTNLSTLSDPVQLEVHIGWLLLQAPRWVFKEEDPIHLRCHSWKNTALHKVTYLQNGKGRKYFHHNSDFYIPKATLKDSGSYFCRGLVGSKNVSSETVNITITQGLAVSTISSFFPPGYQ
Experimental for microglia: Aβ1-42 oligomers are shown in red, and blue is DAPI staining of DNA to show the microglia itself (A). An apical-to-distal slice was obtained from a three-dimensional image rendered from Z-stacks. Confocal imaging was performed on mixed cortical cells labeled for Aβ (red) and stained with DAPI (blue) as described in the Example Section under Materials and Methods. Microglia were identified and scanned for the maximum fluorescence intensity through a series of confocal stacks representing intracellular locations (B), and the total area of fluorescent signal above a minimum threshold was quantified (C). Each mark on the graph represents the total area of Aβ stained within a single cell. A minimum of 20 cells were analyzed for each treatment condition. Data were compared using one-way ANOVA followed by Tukey post-hoc multiple comparison. Means (±SEM) are shown. […] Red is Iba1 staining, green is HyLite Fluor-488-labeled Aβ1 42, and blue is DAPI staining. […] Statistical analysis was done using one-way ANOVA followed by Tukey post-hoc multiple comparison.
Cells were grown on a glass coverslips. Following treatment, cells were quickly washed with PBS and then fixed with 4% paraformaldehyde for 20 min. After thorough washes, cells were immersed in 100% methanol for 10 min at −20° C. They were then washed again and incubated in a blocking solution, PBS containing 10% normal goat serum for 1 h at room temperature. After an overnight incubation with the primary antibody, cells were washed and incubated for 2 h with the secondary antibody, then washed and mounted on glass slides using ProLong Gold antifade reagent (Invitrogen). Epifluorescence and confocal images were acquired on a LSM 700 inverted microscope from Zeiss, using a 63× lens. Fluorescence intensity was measured in cell bodies delineated by saturated epifluorescence pictures. Z-stacks were rendered into a three-dimensional image using ImageJ 1.42 (National Institutes of Health, freeware) from which an apical to distal slice containing the labeled proteins was obtained. Cells treated with HyLite Fluor-488-tagged Aβ1-42 were treated in the same way except no primary or secondary antibodies were used to label for Aβ1-42.

For the substance “MABT-IgG1: same antigen binding sequences as MABT on human IgG1 wild-type backbone with full FcγR-binding capacity”, the “binding to FcγRIIIa-V158, hierarchy” value in the experiment with FcγRIIIa-V158 is reported as “MABT-IgG>MABT>MABT-IgG1-D265A”. In the experiment with p38MAPK, the “Aβ1-42 oligomer-induced p38MAPK activity” value is reported as “increased the Aβ1-42 oligomer-induced p38MAPK activity even further”. Also, in the experiment with microglia (Aβ1-42 in combination with antibody), the “microglial morphology and Iba1 staining” value was “more condensed nuclei and brighter Iba1 staining”. Further, the “Aβ1-42 oligomer internalization into microglia, rank order” value in the experiment with microglia is given as “MABT-IgG1>MABT>MABT-IgG1-D265A”.
Consider “MABT: humanized anti-Aβ monoclonal antibody of IgG4 isotype, affinity matured and humanized form of mouse mMABT”, for which, in the experiment with FcγRIIIa-V158, the “binding to FcγRIIIa-V158, hierarchy” value was “MABT-IgG>MABT>MABT-IgG1-D265A”. Also, the “Aβ1-42 oligomer-induced p38MAPK activity” value in the experiment on p38MAPK is listed as “did not reduce the Aβ1-42 oligomer-induced p38MAPK activity, but rather showed a trend towards higher activity”. Also, the “uptake of Aβ1-42 oligomers into microglia” value in the experiment with microglia (mixed neuronal cultures, apparent from 30 minutes) is reported as “mediated rapid uptake of Aβ1-42 oligomers into cellular profiles likely to be microglia”. In the experiment with microglia, the “Aβ1-42 oligomer internalization into microglia, rank order” value is “MABT-IgG1>MABT>MABT-IgG1-D265A”.
